Key:
Format in all cases: cell-based
OCI-LY10 = experiment: Anti proliferative activity in haematological cancer cell lines (CellTiter Glo), OCI-LY10; conditions: Homo sapiens, OCI-LY10, ABC-DLBCL, 72 hours incubation
Method: (§1) After 24 hours, selected compound of the present invention was added to cells from 10 mM stocks made in DMSO (Sigma Cat no. D2650). CTG reading was taken on the day of compound addition which was labelled as Day 0 reading. Each concentration of compound was tested in triplicate with DMSO concentration not exceeding a final percentage of 0.1 in the cells. After 3 days (72 hours) of incubation assay terminated using 100 μl of CellTiter Glo® reagent (Promega, Cat. no G7572). CellTiter Glo® Luminescent reagent determines the number of viable cells based on quantitation of ATP present which is an indicator of cell number and metabolically activity. Luminescence readings were taken in Victor-3 instrument. The data was analysed using graph pad prism software. Positive control (100% survival)=Cells in complete media with […]; Negative control/blank (0% survival)=Media alone containing 0.1% DMSO.

DOHH-2 = experiment: Anti proliferative activity in haematological cancer cell lines (CellTiter Glo), DOHH-2; conditions: Homo sapiens, DOHH-2, Follicular lymphoma, 72 hours incubation
Method: as §1

Pfeiffer = experiment: Anti proliferative activity in haematological cancer cell lines (CellTiter Glo), Pfeiffer; conditions: Homo sapiens, GCB-DLBCL, 72 hours incubation
Method: as §1

H929 = experiment: Anti proliferative activity in haematological cancer cell lines (CellTiter Glo), H929
Method: as §1

CUTLL-1 = experiment: Anti proliferative activity in haematological cancer cell lines (CellTiter Glo), CUTLL-1
Method: as §1

OCI-LY3 cells = experiment: Anti proliferative activity in haematological cancer cell lines (CellTiter Glo), OCI-LY3
Method: as §1

TMD8* (wt btk) = experiment: Anti proliferative activity in haematological cancer cell lines (CellTiter Glo), TMD8; conditions: Homo sapiens, ABC-DLBCL, 72 hours incubation
Method: as §1

HBL-1 = experiment: Anti proliferative activity in haematological cancer cell lines (CellTiter Glo), HBL-1; conditions: HBL1, HBL-1, ABC-DLBCL, 72 hours incubation
Method: as §1

CCRF-CEM = experiment: Anti proliferative activity in haematological cancer cell lines (CellTiter Glo), CCRF-CEM
Method: as §1

SMILES: C=CC(=O)N1CCN(C(=O)NC2(C#Cc3ccc(Cl)c(Cl)c3)CC2)CC1 [Cpd 23]
- IC50 (OCI-LY10): 10 nM
- IC50 (DOHH-2): 20 nM
- IC50 (Pfeiffer): 870 nM
- anti-proliferative activity (in words) (H929; H929 (multiple myeloma)): potent anti-proliferative activity
- IC50 (H929; Homo sapiens, NCI-H929, H929, Multiple myeloma, 72 hours incubation, CellTiter Glo): 50 nM
- IC50 (CUTLL-1; CUTLL1, CUTLL-1, T-cell acute lymphoblastic leukemia, 72 hours incubation, CellTiter Glo): 50 nM
- anti-proliferative activity (in words) (CUTLL-1; CUTLL-1 (T-cell acute lymphoblastic leukemia)): potent anti-proliferative activity
- IC50 (OCI-LY3 cells; Homo sapiens, OCI-LY3, ABC-DLBCL, 72 hours incubation, CellTiter Glo): 20 nM
- anti-proliferative activity (in words) (OCI-LY3 cells; OCI-LY3 (ABC-DLBCL), activating mutation in CARD11): potent anti-proliferative activity
- IC50 (TMD8* (wt btk)): 10 nM
- IC50 (HBL-1): 350 nM
- anti-proliferative activity (in words) (CCRF-CEM; CCRF-CEM (T-cell acute lymphoblastic leukemia)): potent anti-proliferative activity
- IC50 (CCRF-CEM; Homo sapiens, CCRF-CEM, T-cell acute lymphoblastic leukemia, 72 hours incubation, CellTiter Glo): 280 nM

Source: patent US20230414605A1, “Method of Treating Cancer Using FABP5 Inhibitors” (Aurigene Oncology Limited, priority 2020, published 2023)
